In ChEMBL document CHEMBL1201862, “PubChem BioAssay data set” (2004):
Activity calls are given as the source filed them.

How the values were obtained:
[1] = target: Glyceraldehyde-3-phosphate dehydrogenase (Homo sapiens, UniProt P04406)
[2] = target: Luciferin 4-monooxygenase (Photinus pyralis, UniProt P08659); assay: firefly luciferase enzyme inhibitors, dose response, biochemical, luminescence (AID 1891)
[3] = Luminescence Cell-Based Dose Confirmation HTS to Identify Inhibitors of Platelet Dense Granule Release. [Related pubchem assays: 1663 (Primary HTS), 1678 (Summary of Project)]; assay type: functional
[4] = NIH-3T3 fibroblast cytotoxicity, dose response, cytotoxicity control, cell-based, fluorescence, Alamar Blue, secondary assay (AID 2327); assay type: functional;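 note: NIH-3T3 mouse fibroblasts cultured with fluconazole at 8 µg/mL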
[5] = C. albicans growth with fluconazole, confirmation, fluorescence, retest (AID 2467); assay type: functional, cell-based
[6] = target: T1, Serine/threonine-protein phosphatase (Candida dubliniensis (strain CD36 / CBS 7987 / NCPF 3949 / NRRLY-17841) (Yeast), UniProt B9W6M3); assay: calcineurin pathway inhibitors in yeast reporter, dose response, S. cerevisiae, CDRE-lacZ, luminescence, secondary (AID 2388); assay type: functional, cell-based;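 note: yeast reporter cells carrying a calcineurin-responsive lacZ construct stimulated with calcium chloride; luminescent beta-galactosidase reporter signal in whole cells rather than isolated phosphatase activity; potency for inhibition where a drop in reporter signal means calcineurin blockade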
T1 sequence (B9W6M3 whole entry): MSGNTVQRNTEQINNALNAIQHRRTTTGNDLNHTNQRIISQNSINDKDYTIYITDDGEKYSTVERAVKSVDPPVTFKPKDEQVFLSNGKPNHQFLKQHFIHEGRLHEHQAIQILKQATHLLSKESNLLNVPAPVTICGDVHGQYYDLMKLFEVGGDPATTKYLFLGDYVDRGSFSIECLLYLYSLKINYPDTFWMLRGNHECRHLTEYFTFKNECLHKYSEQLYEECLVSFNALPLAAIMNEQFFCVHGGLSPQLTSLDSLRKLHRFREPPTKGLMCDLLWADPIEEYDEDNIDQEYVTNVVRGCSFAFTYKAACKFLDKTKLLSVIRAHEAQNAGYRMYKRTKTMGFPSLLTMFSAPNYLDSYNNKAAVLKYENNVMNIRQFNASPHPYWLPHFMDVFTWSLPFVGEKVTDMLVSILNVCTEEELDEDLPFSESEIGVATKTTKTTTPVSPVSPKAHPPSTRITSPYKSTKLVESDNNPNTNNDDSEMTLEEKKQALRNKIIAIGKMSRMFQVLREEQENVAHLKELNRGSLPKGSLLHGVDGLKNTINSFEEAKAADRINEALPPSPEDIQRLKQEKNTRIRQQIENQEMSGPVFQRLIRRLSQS

[7] = target: ATP-dependent molecular chaperone HSP82 (Candida albicans (strain WO-1) (Yeast), UniProt C4YTQ8); assay: loss of DOC-induced GRE-beta-galactosidase reporter signal, dose response, Hsp90 inhibitor project, S. cerevisiae, luminescence (AID 2400); assay type: functional, cell-based;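 note: beta-galactosidase luminescence from glucocorticoid response element reporter as proxy for Hsp90 function; inhibitor potency where signal loss means Hsp90 inhibition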
Chain of ATP-dependent molecular chaperone HSP82 (C4YTQ8 whole entry): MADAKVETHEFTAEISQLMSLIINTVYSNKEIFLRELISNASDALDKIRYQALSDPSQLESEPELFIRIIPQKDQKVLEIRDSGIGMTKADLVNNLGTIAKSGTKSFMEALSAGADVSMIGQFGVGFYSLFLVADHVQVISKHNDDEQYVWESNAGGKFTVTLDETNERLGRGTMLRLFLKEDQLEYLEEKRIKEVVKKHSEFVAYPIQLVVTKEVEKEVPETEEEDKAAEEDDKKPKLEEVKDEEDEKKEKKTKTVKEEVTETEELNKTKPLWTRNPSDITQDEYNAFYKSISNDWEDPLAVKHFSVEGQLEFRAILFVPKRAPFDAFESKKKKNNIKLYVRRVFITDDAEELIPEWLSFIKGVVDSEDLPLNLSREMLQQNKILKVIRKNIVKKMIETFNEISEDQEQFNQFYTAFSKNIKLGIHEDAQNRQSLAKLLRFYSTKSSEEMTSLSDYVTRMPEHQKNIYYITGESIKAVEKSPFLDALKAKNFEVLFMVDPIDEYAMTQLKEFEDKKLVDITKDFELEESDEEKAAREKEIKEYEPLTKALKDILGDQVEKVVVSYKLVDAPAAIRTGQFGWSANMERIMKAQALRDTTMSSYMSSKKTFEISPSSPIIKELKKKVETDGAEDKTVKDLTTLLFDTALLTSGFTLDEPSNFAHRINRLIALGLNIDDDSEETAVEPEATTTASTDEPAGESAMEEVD

[8] = target: T2, Corticotropin-releasing factor receptor 2/Corticotropin-releasing factor-binding protein (Homo sapiens, UniProt P24387+Q13324); assay: activators of CRF receptor 2 with binding protein – uHTS hits, confirmation (AID 602473); assay type: functional; conditions: read-out: EC50_Mean
T2 sequence (Q13324 whole entry): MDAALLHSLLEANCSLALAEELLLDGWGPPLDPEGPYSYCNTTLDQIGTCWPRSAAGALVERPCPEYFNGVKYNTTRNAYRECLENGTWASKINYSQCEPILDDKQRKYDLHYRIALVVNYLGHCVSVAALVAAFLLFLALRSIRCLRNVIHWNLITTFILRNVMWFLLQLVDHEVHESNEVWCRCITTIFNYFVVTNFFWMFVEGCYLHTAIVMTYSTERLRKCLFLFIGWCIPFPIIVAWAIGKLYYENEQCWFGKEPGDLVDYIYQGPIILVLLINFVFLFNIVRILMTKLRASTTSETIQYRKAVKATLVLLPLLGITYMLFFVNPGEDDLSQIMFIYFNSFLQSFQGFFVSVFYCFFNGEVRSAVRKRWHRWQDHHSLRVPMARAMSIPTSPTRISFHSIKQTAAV
T2 sequence (P24387 whole entry): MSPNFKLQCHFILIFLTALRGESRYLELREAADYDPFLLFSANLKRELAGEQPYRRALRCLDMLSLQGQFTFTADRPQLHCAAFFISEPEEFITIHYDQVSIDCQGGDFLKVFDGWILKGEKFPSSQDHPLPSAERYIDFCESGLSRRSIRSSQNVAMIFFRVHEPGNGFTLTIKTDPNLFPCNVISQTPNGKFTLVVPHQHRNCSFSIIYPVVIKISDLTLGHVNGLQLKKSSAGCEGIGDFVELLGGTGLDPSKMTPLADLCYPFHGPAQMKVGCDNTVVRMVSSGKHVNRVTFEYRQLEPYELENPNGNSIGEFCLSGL

[9] = Luminescence Cell-Based Dose Retest to Confirm Inhibitors of Cancer Stem Cells. [Related pubchem assays (depositor defined):AID2717, AID2721]; assay type: functional; conditions: Homo sapiens
[10] = target: T3, Heat shock factor protein 1 (Mus musculus, UniProt P38532); assay: HSF1 potentiators in luciferase reporter cells, confirmation, cell-based, NIH3T3, luminescence, dose retest (AID 435004); assay type: functional;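 note: stress induced by proteasome inhibitor MG132 added 30 min after compound; luciferase reporter driven by HSF1 response element in NIH3T3 cells; actives raise luminescence as potentiators of the MG132 stress response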
T3 sequence (P38532 whole entry): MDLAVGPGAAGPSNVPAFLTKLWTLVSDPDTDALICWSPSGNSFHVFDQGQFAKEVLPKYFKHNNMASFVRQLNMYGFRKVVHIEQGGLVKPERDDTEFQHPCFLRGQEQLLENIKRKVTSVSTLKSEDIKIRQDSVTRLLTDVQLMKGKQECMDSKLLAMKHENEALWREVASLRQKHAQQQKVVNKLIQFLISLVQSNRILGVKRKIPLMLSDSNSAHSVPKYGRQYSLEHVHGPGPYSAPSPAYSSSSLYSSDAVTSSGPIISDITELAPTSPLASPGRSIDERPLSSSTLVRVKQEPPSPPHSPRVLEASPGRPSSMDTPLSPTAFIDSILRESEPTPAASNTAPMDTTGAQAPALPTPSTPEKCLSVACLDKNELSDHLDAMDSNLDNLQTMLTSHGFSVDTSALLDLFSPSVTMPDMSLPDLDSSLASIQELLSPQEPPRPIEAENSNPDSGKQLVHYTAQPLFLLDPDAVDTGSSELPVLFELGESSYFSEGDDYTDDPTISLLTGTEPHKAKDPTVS

[11] = target: T4, Small ubiquitin-related modifier 1 (Homo sapiens, UniProt P63165); assay: inhibitors of SUMO1 peptide binding, dose response, biochemical, fluorescence polarization, uHTS hits (AID 624382); assay type: functional; conditions: read-out: IC50_Mean
T4 sequence (P63165 whole entry): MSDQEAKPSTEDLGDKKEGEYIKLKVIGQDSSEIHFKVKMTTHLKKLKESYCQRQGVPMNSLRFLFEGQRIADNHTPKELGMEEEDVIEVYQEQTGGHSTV

[12] = target: T4, Small ubiquitin-related modifier 1; assay: inhibitors of SUMO1 partner interactions, dose response, biochemical, FRET (AID 624383); assay type: functional; conditions: read-out: IC50_Mean
INS1 = assay: beta cell apoptosis inhibitors, cytokine rescue, dose response, luminescence, retest (AID 449756); assay type: functional, cell-based; conditions: Rattus norvegicus;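 note: cell death triggered by IL-1 beta plus TNF-alpha plus IFN-gamma mixture; protective hits raise ATP signal compared with cytokine alone wells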
Large T antigen = Large T antigen (Simian virus 40, UniProt P03070); assay type: functional, Betapolyomavirus macacae;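 note: Confirmatory-stage PubChem screen for compounds that inhibit SV40 T antigen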
Chain of Large T antigen (P03070 whole entry): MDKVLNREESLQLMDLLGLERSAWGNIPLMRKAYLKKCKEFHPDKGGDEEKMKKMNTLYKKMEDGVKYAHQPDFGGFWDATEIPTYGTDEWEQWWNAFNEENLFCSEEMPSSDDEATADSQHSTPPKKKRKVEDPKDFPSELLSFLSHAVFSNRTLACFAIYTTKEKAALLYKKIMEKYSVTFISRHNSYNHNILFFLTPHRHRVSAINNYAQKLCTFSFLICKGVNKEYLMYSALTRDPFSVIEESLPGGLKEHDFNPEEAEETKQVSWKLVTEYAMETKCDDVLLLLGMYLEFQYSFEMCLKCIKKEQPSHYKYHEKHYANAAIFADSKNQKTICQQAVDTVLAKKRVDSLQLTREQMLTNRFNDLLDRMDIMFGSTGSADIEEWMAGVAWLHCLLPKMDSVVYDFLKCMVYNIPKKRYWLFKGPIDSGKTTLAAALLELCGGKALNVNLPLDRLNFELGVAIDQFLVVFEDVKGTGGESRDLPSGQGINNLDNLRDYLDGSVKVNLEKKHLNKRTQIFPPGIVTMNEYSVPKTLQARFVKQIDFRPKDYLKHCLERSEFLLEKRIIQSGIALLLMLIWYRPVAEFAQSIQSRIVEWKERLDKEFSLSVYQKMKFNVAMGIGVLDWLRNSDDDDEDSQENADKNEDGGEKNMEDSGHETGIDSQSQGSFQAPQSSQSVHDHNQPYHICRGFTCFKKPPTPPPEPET

[13] = target: 26S proteasome non-ATPase regulatory subunit 14 (Homo sapiens, UniProt O00487); assay: inhibition of proteasome subunit RPN11 – biochemical, fluorescence polarization, uHTS hits, confirmation (AID 602368); assay type: functional
Chain of 26S proteasome non-ATPase regulatory subunit 14 (O00487 whole entry): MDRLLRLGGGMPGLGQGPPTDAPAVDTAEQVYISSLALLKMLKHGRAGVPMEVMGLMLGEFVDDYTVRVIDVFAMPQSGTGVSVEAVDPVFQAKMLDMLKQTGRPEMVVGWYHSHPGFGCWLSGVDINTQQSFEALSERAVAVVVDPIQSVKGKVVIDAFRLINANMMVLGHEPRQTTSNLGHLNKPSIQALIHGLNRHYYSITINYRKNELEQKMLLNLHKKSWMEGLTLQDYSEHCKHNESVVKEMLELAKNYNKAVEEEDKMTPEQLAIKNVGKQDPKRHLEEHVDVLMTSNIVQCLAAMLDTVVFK

[14] = target: 72 kDa type IV collagenase (Homo sapiens, UniProt P08253); assay: Dose Response validation of uHTS RPN11 inhibitor hits using a MMP-2 Fluorescence assay.; assay type: functional
Chain of 72 kDa type IV collagenase (P08253 whole entry): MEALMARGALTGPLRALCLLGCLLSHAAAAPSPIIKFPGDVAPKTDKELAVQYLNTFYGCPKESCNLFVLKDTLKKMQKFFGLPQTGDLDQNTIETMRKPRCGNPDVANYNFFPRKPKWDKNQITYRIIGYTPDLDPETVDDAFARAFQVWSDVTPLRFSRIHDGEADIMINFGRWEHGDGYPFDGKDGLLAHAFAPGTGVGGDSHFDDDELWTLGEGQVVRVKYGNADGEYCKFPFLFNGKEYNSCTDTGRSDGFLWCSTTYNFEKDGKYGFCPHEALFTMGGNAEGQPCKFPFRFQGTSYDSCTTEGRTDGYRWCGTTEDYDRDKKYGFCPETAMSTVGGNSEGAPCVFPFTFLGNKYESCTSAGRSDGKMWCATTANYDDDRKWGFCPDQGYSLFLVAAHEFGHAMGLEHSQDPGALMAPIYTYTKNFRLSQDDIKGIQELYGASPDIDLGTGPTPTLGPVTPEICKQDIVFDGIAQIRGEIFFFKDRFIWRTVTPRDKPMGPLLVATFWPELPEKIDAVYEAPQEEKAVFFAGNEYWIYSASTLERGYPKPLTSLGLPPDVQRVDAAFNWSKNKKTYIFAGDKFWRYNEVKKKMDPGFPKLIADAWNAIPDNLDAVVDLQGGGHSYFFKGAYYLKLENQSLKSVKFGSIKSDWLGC

Prothrombin = Prothrombin (Bos taurus, UniProt P00735); assay: thrombin inhibition, dose response, biochemical, fluorescence polarization, uHTS hits (AID 602369); assay type: functional
HEK293 [15] = assay: NOD1 signaling inhibitors, primary screen, cell-based, luminescence, uHTS (AID 1578); assay type: functional; conditions: Homo sapiens
HEK293 [16] = assay: cells; assay type: functional, cell-based; conditions: Homo sapiens
HEK293 [17] = assay: cells; assay type: functional, cell-based; conditions: Homo sapiens; remark: listed apart in the source
HEK293 [18] = assay: NOD2 signaling inhibitors in MDP-stimulated cells, cell-based, uHTS, luminescence (AID 2001); assay type: functional; conditions: Homo sapiens
[19] = Shn3 3'UTR reporter inhibitors, dose response, cell-based, Clone20 osteoblasts, firefly luciferase, cherry-picked (AID 624132); assay type: functional;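 note: firefly luciferase luminescence from reporter carrying the Shn3 3'UTR in osteoblasts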
[20] = HepG2 cell cytotoxicity, dose response, cytotoxicity control for Shn3 inhibitor project, CellTiter-Glo, cherry-picked (AID 624134); assay type: functional, cell-based
[21] = control 3'UTR Renilla luciferase suppression, dose response, counter-screen for Shn3 inhibitor project, cell-based, Clone20-Shn3RL, cherry-picked (AID 624133); assay type: functional
[22] = target: T5, Rac GTPase-activating protein 1 (Homo sapiens, UniProt Q9H0H5); assay: MgcRacGAP GTPase-activating activity inhibitors, confirmation, biochemical, ADP Hunter fluorescence, primary and confirmatory (AID 624330); assay type: functional
T5 sequence (Q9H0H5 whole entry): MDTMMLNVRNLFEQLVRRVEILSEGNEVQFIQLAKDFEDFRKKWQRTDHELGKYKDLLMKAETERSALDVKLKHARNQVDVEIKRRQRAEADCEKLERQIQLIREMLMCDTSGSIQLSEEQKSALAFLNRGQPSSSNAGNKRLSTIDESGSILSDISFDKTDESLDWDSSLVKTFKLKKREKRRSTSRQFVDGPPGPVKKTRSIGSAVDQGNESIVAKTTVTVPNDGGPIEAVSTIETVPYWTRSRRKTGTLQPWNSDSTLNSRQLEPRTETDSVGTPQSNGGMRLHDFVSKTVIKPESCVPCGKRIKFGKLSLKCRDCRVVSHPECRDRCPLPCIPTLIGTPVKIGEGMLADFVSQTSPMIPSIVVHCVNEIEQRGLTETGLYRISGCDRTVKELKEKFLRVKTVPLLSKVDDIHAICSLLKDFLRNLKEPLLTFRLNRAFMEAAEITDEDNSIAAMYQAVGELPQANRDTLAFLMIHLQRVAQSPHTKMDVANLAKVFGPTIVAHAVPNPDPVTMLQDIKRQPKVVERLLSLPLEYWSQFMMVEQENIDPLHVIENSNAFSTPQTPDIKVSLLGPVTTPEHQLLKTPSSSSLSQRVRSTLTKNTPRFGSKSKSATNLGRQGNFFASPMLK

[23] = P. falciparum Dd2 growth inhibitors, dose response, SYBR Green, cherry-picked samples (AID 1159567); assay type: functional, cell-based
[24] = HepG2 cell cytotoxicity, dose response, cytotoxicity control, cherry-picked samples (AID 1159577); assay type: functional, cell-based

Chain of Luciferin 4-monooxygenase (P08659 whole entry): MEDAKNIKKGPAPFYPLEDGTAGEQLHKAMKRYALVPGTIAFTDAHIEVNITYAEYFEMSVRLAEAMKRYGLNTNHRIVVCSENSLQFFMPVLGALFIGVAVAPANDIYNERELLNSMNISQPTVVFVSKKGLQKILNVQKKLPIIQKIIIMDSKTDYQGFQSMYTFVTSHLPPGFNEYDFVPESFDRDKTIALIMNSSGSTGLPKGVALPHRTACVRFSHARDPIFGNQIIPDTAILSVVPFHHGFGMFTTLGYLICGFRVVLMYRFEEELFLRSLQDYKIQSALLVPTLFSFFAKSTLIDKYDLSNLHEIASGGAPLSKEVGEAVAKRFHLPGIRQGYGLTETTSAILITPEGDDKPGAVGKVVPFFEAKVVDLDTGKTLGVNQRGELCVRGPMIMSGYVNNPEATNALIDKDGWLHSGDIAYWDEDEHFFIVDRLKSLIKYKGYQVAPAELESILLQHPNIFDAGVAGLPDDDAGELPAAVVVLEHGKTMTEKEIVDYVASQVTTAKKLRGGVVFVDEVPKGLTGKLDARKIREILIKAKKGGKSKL
Chain of Glyceraldehyde-3-phosphate dehydrogenase (P04406 whole entry): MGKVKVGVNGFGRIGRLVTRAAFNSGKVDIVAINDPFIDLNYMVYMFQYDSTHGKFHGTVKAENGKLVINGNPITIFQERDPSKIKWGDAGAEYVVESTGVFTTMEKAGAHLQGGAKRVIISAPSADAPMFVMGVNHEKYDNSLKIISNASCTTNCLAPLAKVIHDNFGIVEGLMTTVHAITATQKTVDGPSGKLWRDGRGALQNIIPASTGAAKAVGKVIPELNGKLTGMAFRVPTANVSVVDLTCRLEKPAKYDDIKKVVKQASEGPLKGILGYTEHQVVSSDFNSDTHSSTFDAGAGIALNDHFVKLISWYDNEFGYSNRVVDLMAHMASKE

Structure (SMILES): C[C@@H]1CN(C2=C(Cl)C(=O)N(c3ccc(Cl)nc3)C2=O)CCN1
- IC50 [1]: > 50 µM (inconclusive)

Structure (SMILES): CN(C)CCN(Cc1ccccc1)S(=O)(=O)c1ccc(-c2ccc(O)nn2)s1
- EC50 [2]: > 112 µM (not active)
- EC50 [3]: 6.77 µM (active)

Structure (SMILES): CCc1nnc(NC(=O)CSc2nc(SC)ns2)s1
- EC50 [4]: > 160 µM (inactive)
- EC50 [5]: 2.88 µM (active)
- EC50 [6]: > 180 µM (inactive)
- EC50 [7]: > 160 µM (inactive)
- EC50 [8]: > 53 µM (inactive)

Structure (SMILES): Cn1cc([N+](=O)[O-])c(C(=O)Nc2ccc(-c3nc4ccccc4o3)cc2)n1
- AC50 [9]: 2.45 µM (active)
- EC50 [10]: 6.61 µM (active)
- IC50 [11]: > 66.6 µM (inactive)
- IC50 [12]: 17.3 µM (active)

Structure (SMILES): Cc1ccc(NC(=O)COc2ccc(C(=O)NCCc3ccccc3)cc2)cc1
- EC50 [2]: > 112 µM (not active)
- EC50 [3]: > 112 µM (not active)

Structure (SMILES): COc1ccc(C2C(C#N)=C(N)Oc3c2ccc2cccnc32)cc1OC (centres undefined)
- EC50 [4]: 19.1 µM (inconclusive)
- EC50 [5]: 5.01 µM (active)
- EC50 [6]: > 180 µM (inactive)
- AC50 (INS1): 6.75 µM (active)
- EC50 [7]: > 150 µM (inactive)

Structure (SMILES): O=C1NC(=O)N(c2ccc(Cl)cc2)C(=O)/C1=C\c1ccc(Sc2nc3ccccc3[nH]2)o1
- IC50 (Large T antigen): 18.8 µM (active)
- IC50 [13]: 42.2 µM (active)
- IC50 [14]: > 100 µM (inactive)
- IC50 (Prothrombin): 44.9 µM (active)

Structure (SMILES): CCOC(=O)c1c(N=C(S)NCC2CCCO2)sc(C)c1C (centres undefined)
- EC50 [4]: > 150 µM (inactive)
- EC50 [5]: 0.635 µM (active)
- EC50 [6]: > 180 µM (inactive)
- EC50 [7]: 16.9 µM (active)

Structure (SMILES): Cc1cc2c(cc1C)NC(c1ccccn1)C1=C(O)CC(C)(C)CC1=N2 (centres undefined)
- EC50 [2]: > 112 µM (not active)
- EC50 [3]: > 112 µM (not active)

Structure (SMILES): CC(NS(C)(=O)=O)C(c1cccs1)N1CCN(Cc2ccccc2)CC1 (centres undefined)
- EC50 [2]: > 112 µM (not active)
- EC50 [3]: > 112 µM (not active)

Structure (SMILES): O=C(c1cc(COc2c(F)cccc2F)on1)N1CCC(c2ccncc2)CC1
- EC50 (HEK293 [15]): 2.64 µM (active)
- IC50 (HEK293 [16]): 9.14 µM (active)
- IC50 (HEK293 [17]): > 20 µM (inactive)
- IC50 (HEK293 [18]): 17.1 µM (inactive)
- AC50 [19]: 1.6 µM (active)
- AC50 [20]: 6.75 µM (active)
- AC50 [21]: 2.31 µM (active)

Structure (SMILES): CN1C=CC(=CC=C2C=CC(=O)C=C2)C=C1
- IC50 [13]: 31.2 µM (active)
- IC50 [14]: > 100 µM (inactive)
- IC50 (Prothrombin): 62.7 µM (active)
- IC50 [22]: 18.4 µM (active)

Structure (SMILES): C[C@@H]1CN([C@@H](C)CO)C(=O)c2c(c3ccccc3n2C)-c2ccccc2CO[C@@H]1CN(C)Cc1cccc(C(F)(F)F)c1
- AC50 [23]: 1.64 µM (active)
- AC50 [24]: 14 µM (active)
